Source: US9073855B2, “BCL-2 selective apoptosis-inducing agents for the treatment of cancer and immune diseases” (AbbVie Inc., priority 2008, dated 2015)

How the values were obtained:
FL5.12/Bcl-2 cells = test: FL5.12/Bcl-2 cell viability assay under IL-3 withdrawal (CellTitre Glo); type: cell-based, murine; conditions: Mus musculus, IL-3 withdrawn 48 hrs, then 24 hrs with compound
Method in brief: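 Cells (1×10^6/ml) are washed, resuspended in medium lacking WEHI-3B conditioned medium as IL-3 source, and held 48 hrs. Compounds are then added at a range of concentrations for 24 hrs, after which CellTitre Glo reports viability.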

GST-Bcl-XL = GST-Bcl-XL (Homo sapiens, UniProt Q07817); test: TR-FRET binding assay, GST-Bcl-XL with F-Bak peptide probe; conditions: TR-FRET Binding Affinity, GST-Bcl-XL, F-Bak peptide probe
Method in brief: (§1)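 Competitive TR-FRET: GST-fusion protein, fluorescent Bak peptide probe and Tb-labelled anti-GST antibody incubated with compound dilution series (starting 50 μM as 2× stock, 10% DMSO) for 3 h at RT. Excitation 340/35 nm; Ki derived via Wang's exact competitive-binding equation.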

GST-Bcl-2 = GST-Bcl-2 (Homo sapiens, UniProt P10415); test: TR-FRET binding assay, GST-Bcl-2 with F-Bak peptide probe; conditions: TR-FRET Binding Affinity, GST-Bcl-2, F-Bak peptide probe
Method in brief: as §1

GST-Bcl-2, sequence (P10415 whole entry): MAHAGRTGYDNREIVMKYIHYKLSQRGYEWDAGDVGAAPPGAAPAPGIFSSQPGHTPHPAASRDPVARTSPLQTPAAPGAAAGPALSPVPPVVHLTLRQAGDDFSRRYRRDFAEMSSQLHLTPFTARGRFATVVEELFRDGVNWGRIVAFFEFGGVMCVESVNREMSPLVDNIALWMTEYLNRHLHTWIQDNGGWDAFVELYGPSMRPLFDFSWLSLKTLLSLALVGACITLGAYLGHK
GST-Bcl-XL, sequence (Q07817 whole entry, the tested form may be a part): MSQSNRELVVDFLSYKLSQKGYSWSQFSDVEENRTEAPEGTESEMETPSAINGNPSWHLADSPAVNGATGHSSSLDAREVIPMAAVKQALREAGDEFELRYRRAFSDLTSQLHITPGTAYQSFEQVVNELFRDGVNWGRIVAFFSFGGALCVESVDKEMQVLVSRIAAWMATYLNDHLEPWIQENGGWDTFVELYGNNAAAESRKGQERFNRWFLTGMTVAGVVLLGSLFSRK

Row | Compound | EC50 (FL5.12/Bcl-2 cells) | Ki (GST-Bcl-XL) | Ki (GST-Bcl-2)
1 | CC1(C)CCC(CN2CCN(c3ccc(C(=O)NS(=O)(=O)c4ccc(NCC5COCCO5)c([N+](=O)[O-])c4)c(Oc4ccc5[nH]ccc5c4)c3)CC2)=C(c2ccc(Cl)cc2)C1 (stereo not drawn) [Example 336, 4-(4-{[2-(4-chlorophenyl)-4,4-dimethylcyclohex-1-en-1-yl]methyl}piperazin-1-yl)-N-({4-[(1,4-dioxan-2-ylmethyl)amino]-3-nitrophenyl}sulfonyl)-2-(1H-indol-5-yloxy)benzamide] | 7.49 nM | 242 nM | 0.105 nM
2 | CN1CCN(Nc2ccc(S(=O)(=O)NC(=O)c3ccc(N4CCN(CC5=C(c6ccc(Cl)cc6)CC(C)(C)CC5)CC4)cc3Oc3ccc4[nH]ccc4c3)cc2S(=O)(=O)C(F)(F)F)CC1 [Example 220, 4-(4-{[2-(4-chlorophenyl)-4,4-dimethylcyclohex-1-en-1-yl]methyl}piperazin-1-yl)-2-(1H-indol-5-yloxy)-N-({4-[(4-methylpiperazin-1-yl)amino]-3-[(trifluoromethyl)sulfonyl]phenyl}sulfonyl)benzamide] | 24 nM | 31.4 nM | 0.192 nM
3 | COCCNc1ccc(S(=O)(=O)NC(=O)c2ccc(N3CCN(CC4=C(c5ccc(Cl)cc5)CC(C)(C)CC4)CC3)cc2Oc2cccc3[nH]ccc23)cc1S(=O)(=O)C(F)(F)F [Example 309, 4-(4-{[2-(4-chlorophenyl)-4,4-dimethylcyclohex-1-en-1-yl]methyl}piperazin-1-yl)-2-(1H-indol-4-yloxy)-N-({4-[(2-methoxyethyl)amino]-3-[(trifluoromethyl)sulfonyl]phenyl}sulfonyl)benzamide] | > 500 nM | > 660 nM | 4.42 nM
4 | CC(c1ccccc1-c1ccc(Cl)cc1)N1CCN(c2ccc(C(=O)NS(=O)(=O)c3ccc(NCC4CCOCC4)c([N+](=O)[O-])c3)c(Oc3ccc4[nH]ccc4c3)c2)CC1 (stereo not drawn) [Example 252, 4-{4-[1-(4′-chloro-1,1′-biphenyl-2-yl)ethyl]piperazin-1-yl}-2-(1H-indol-5-yloxy)-N-({3-nitro-4-[(tetrahydro-2H-pyran-4-ylmethyl)amino]phenyl}sulfonyl)benzamide] | 6.62 nM | > 660 nM | 0.077 nM
5 | CC1(C)CCC(CN2CCN(c3ccc(C(=O)NS(=O)(=O)c4ccc(NC[C@H]5CC[C@H](O)CC5)c([N+](=O)[O-])c4)c(Oc4ccc5[nH]ccc5c4)c3)CC2)=C(c2ccc(Cl)cc2)C1 [Example 310, Trans-4-(4-{[2-(4-chlorophenyl)-4,4-dimethylcyclohex-1-en-1-yl]methyl}piperazin-1-yl)-N-[(4-{[(4-hydroxycyclohexyl)methyl]amino}-3-nitrophenyl)sulfonyl]-2-(1H-indol-5-yloxy)benzamide] | 4.51 nM | > 660 nM | 0.049 nM
6 | CC1(C)CCC(CN2CCN(c3ccc(C(=O)NS(=O)(=O)c4ccc(NC5CCN(CCn6cccn6)CC5)c([N+](=O)[O-])c4)c(Oc4ccc5[nH]ccc5c4)c3)CC2)=C(c2ccc(Cl)cc2)C1 [Example 243, 4-(4-{[2-(4-chlorophenyl)-4,4-dimethylcyclohex-1-en-1-yl]methyl}piperazin-1-yl)-2-(1H-indol-5-yloxy)-N-{[3-nitro-4-({1-[2-(1H-pyrazol-1-yl)ethyl]piperidin-4-yl}amino)phenyl]sulfonyl}benzamide] | 28 nM | > 660 nM | 0.28 nM
7 | CC1(C)CCC(CN2CCN(c3ccc(C(=O)NS(=O)(=O)c4ccc(NCC5CCOCC5)c(S(=O)(=O)C(F)(F)F)c4)c(Oc4cccc5[nH]ccc45)c3)CC2)=C(c2ccc(Cl)cc2)C1 [Example 303, 4-(4-{[2-(4-chlorophenyl)-4,4-dimethylcyclohex-1-en-1-yl]methyl}piperazin-1-yl)-2-(1H-indol-4-yloxy)-N-({4-[(tetrahydro-2H-pyran-4-ylmethyl)amino]-3-[(trifluoromethyl)sulfonyl]phenyl}sulfonyl)benzamide] | > 500 nM | > 660 nM | 1.48 nM
